Laboratory results reported in US20210308138A1, “TISSUE TRANSGLUTAMINASE MODULATORS FOR MEDICINAL USE” (Aarhus Universitet, priority 2018, published 2021).

Assays:
Male Wistar rats = experiment: Mean arterial pressure (MAP) in vivo measurement after intrajugular infusion
Procedure: For ‘in vivo’ experiments Wistar rats of different age were fasted 8 h before anesthesia with 35 mg/kg of S-ketamine and 50 mg/kg of pentobarbital sodium administered intraperitoneally.
Male Wistar rats with 12-14 and 30-35 weeks of age were anesthetized with s-ketamine (35 mg/kg) and pentobarbital (50 mg/kg) and placed on a heated blanket to maintain body temperature at 37° C. ECG needles were installed for electrocardiographic measurements and a solid state catheter (Millar Inc, Houston, USA) was introduced into the carotid artery to measure MAP. MAP and electrocardiographic data was continuously recorded on a computerized data acquisition system (PowerLab, ADInstruments). Adequate depth of anesthesia was checked periodically by the absence of the toe pinch withdrawal effect and ⅓ of the initial dose of anesthetics was administered intraperitoneally when needed (usually each 1½ h). Changes in MAP and electrocardiographic signal in response to intrajugular infusion during 3 minutes of different doses of LDN-27219 and the corresponding vehicle (PEG-400) were studied.
The Area Under the Curve (AUC) was calculated using Graphpad Prism 5.1 (GraphPad Software, San Diego, Calif., USA) for each response to the change in MAP that was collected during the experiments in example 3. The AUC gives information about the maximal response, and about the duration of the effect.
Rats of different age in these experiments were anesthetized, prepared and catheterized as described in Example 3.

[1] = test system: small subcutaneous arteries obtained from human biopsies; experiment: Direct relaxation of human small subcutaneous arteries; conditions: LDN-27219 10^−8-10^−5 mol/L; hypertensive patients
Procedure: Human subcutaneous arteries were obtained from fat biopsies of the gluteal region from both male and female patients (30-70 years of age) with essential hypertension.
For ‘ex vivo’ studies, animals were randomly selected and euthanized by cervical dislocation and exanguination. The mesenteric arteries were immediately extracted and placed in 4° C. physiological saline solution (PSS, pH=7.4) of the following composition (mmol/L): 119 NaCl, 4.7 KCl, 1.18 KH2PO4, 1.17 MgSO4, 1.5 CaCl2), 24.9 NaHCO3, 0.026 EDTA and 5.5 glucose and small mesenteric arteries (internal diameters of 200-300 μm) were isolated. Human subcutaneous arteries (internal diameters of 300-400 μm) were dissected from the biopsies in the same conditions mentioned above for the mesenteric bed from rodents.
Small human subcutaneous arteries were obtained from fat biopsies from the gluteal region of hypertensive patients and prepared as described in Example 1. Concentration-response curves for LDN-27219 were constructed as described in Example 4 (FIG. 5B) and relaxation measurements were performed as described in Example 1.

[2] = test system: vascular smooth muscle cells (VSMCs) potassium currents; experiment: Whole-cell patch-clamp of K+ outward currents in isolated vascular smooth muscle cells; format: cell-based, rat; conditions: LDN-27219 3·10^−5 mol/L 12 min; VA-5 5·10^−5 mol/L one hour incubation
Procedure: For isolation of VSMCs, rat mesenteric arteries were dissected as previously described, opened longitudinally and stored in ice-cold dissociation solution containing (mmol/L): 119 NaCl, 4.7 KCl, 1.18 KH2PO4, 1.17 MgSO4, 24.9 NaHCO3, 0.027 EDTA, and 11 glucose, pH=7.4. Arteries were then equilibrated during 10 min in a dissociation solution with bovine albumin serum (BSA; 1 mg/mL) at 37° C. and then exposed to the same solution supplemented with papain (0.5 mg/mL; Worthington Biochemical Corp., Lakewood, N.J., USA) and dithiothreitol (DTT; 1 mg/mL) at 37° C. for 8 min. Arteries were then washed in ice-cold dissociation solution and moved to dissociation solution containing BSA (1 mg/mL) and collagenase (0.7 mg/mL type F and 0.4 mg/mL type H; Worthington Biochemical Corp.) at 37° C. for 3 min. […]
Membrane currents were recorded under the whole-cell configuration of the patch-clamp technique using an Axon Multiclamp 700A amplifier (Axon instruments, Molecular Devices, CA, USA). […] Current-voltage relations were determined using 600 ms voltage ramps from −100 to 160 mV and a holding potential (Vh) of −65 mV for SMCs.
Amplitudes of K^+-outward currents were measured in control conditions and 12 min after the addition of LDN-27219 (3·10^−5 mol/L) to the extracellular solution by a perfusion system.

[3] = Pharmacokinetic study, single intravenous dose, non-compartmental model; format: in vivo; conditions: mouse, blood, single 2 mg/kg intravenous dose, mice

clearance [3]: 52.3 mL/min/kg | half-life [3]: 4.89 h | Vd ([3]; read-out: Volume of distribution): 21.4 L/kg
Structure (SMILES): NNC(=O)CSc1nc2scc(-c3ccccc3)c2c(=O)n1-c1ccccc1 [LDN-27219]
mean blood pressure (MAP) (Male Wistar rats; LDN-27219 0.1, 1.0 and 2.0 mg/kg, intrajugular infusion during 3 minutes, carotid artery): lowers the mean blood pressure | age dependence of antihypertensive effect (AUC of MAP) (Male Wistar rats; rats >30 weeks vs 12-14 weeks old): greater effect of LDN-27219 in older animals | direct relaxation of human small subcutaneous arteries [1]: direct and dose-dependent relaxation | potassium currents compared to control conditions [2]: potassium currents significantly bigger
